Experimental data: US6884805B2, “Polymorph forms of N-(2,3-dimethyl-5,6,7,8-tetrahydrofuro[2,3-B]quinolin-4-YL)-2-(2-oxopyrrolidin-1-YL)acetamide” (Mitsubishi Pharma Corporation, priority 2001, dated 2005)
In brackets after ≈: the same amount, converted by molar mass. Entries after “also recorded” stand apart in the source; their conditions may differ. Read-outs that look alike come from different tables or passages of the source.

What was measured:
Assay type in all cases: physicochemical
[1] = Crystal form stability at room temperature and during storage; conditions: for stability in storage: during storage (over time); for stability at room temperature compared with the other crystal form: room temperature (25° C.)
Text: The form A crystal and the form B crystal of the present invention can be prepared with good reproducibility by using solvents safe for human bodies (e.g., pharmaceutically, pharmacologically, and/or physiologically acceptable). Therefore, it is far more useful as a pharmaceutical bulk or an active ingredient of a medicament.

[2] = Conversion of form B crystal to form A crystal in stirred water suspension; conditions: 0.5 g in 10 mL water, stirred 24 hours, confirmed by powder X-ray diffraction
Procedure: A suspension was prepared by adding 0.5 g of form B crystals of N-(2,3-dimethyl-5 ,6,7,8-tetrahydrofuro [2,3-b]quinolin-4-yl)-2-(2-oxopyrrolidin-1-yl)acetamide to 10 mL of water. […] The powder X-ray diffraction pattern of the resulting crystals was measured to confirm that the resulting crystals were form A crystals.

[3] = Water solubility of saturated solutions measured by LC
Procedure: Saturated solutions of the form A crystals and the form B crystals were prepared at room temperature (25° C.). The concentrations of N-(2,3-dimethyl-5,6,7,8-tetrahydrofuro[2,3-b]quinolin-4-yl)-2-(2-oxopyrrolidin-1-yl)acetamide in each of the saturated solutions then was measured to obtain the water solubility of the form A and form B crystals.
About 20 mg of the form A crystal was weighed and put into separate tube with screwcap, then 10 mL of water were added, and the tube was capped. The tube was ultrasonicated for 5 minutes to suspend the sample. The tube then was shaken for 3 hours in an incubator, with the shaker setting at an appropriate temperature to obtain a saturated solution. The saturated solutions were filtrated using a Chromatodisk 25A (GL Science). 5 mL of the filtrate were measured, and 5 mL of the internal standard solutions (16 mg of isopropyl p-hydroxybenzoate were weighed, and 50% methanol was added to obtain 100 mL of an internal standard solutions) were added, and then 50% methanol was added to obtain 50 mL of sample solutions. 20 mg of each crystals were weighed, and then methanol was added to obtain 50 mL solutions. 5 mL of the aforementioned solutions were measured, and then 5 mL of the internal standard solutions were added, and then 50% of methanol was added to obtain 50 mL of the standard solutions. […]

[4] = Solubility in the crystallization solvent (for the supersaturability calculation); conditions: aqueous with cosolvent or surfactant or cyclodextrin, about room temperature, read-out: solubility under the condition of crystallization
Procedure: The supersaturability of the form A crystals was calculated as follows: The supersaturability (calculation) is equal to the concentration of the dissolving N-(2,3-dimethyl-5,6,7,8-tetrahydrofuro[2,3-b]quinolin-4-yl)-2-(2-oxopyrrolidin-1-yl)acetamide divided by the solubility of N-(2,3-dimethyl-5,6,7,8-tetrahydrofuro[2,3-b]quinolin-4-yl)-2-(2-oxopyrrolidin-1-yl)acetamide under the condition of crystallization.
The solubility of N-(2,3-dimethyl-5,6,7,8-tetrahydrofuro[2,3-b]quinolin-4-yl)-2-(2-oxopyrrolidin-1-yl)acetamide under the condition of crystallization refers to the solubility of N-(2,3-dimethyl-5,6,7,8-tetrahydrofuro[2,3-b]quinolin-4-yl)-2-(2-oxopyrrolidin-1-yl)acetamide in the solvents used in crystallization at about room temperature.

| SMILES | stability in storage [1] | stability at room temperature compared with the other crystal form [1] | stability at room temperature compared with the other crystal form ([1]; listed as form A) | crystal form after stirring a suspension in water [2] | solubility (in words) ([3]; summary statement) | solubility compared with the form A crystal ([3]; water, at 25° C. and over a relatively wide temperature range (FIG. 4)) | solubility ([4]; 10% methanol) [mg/mL] | solubility ([4]; 60% methanol) [mg/mL] |
| --- | --- | --- | --- | --- | --- | --- | --- | --- |
| Cc1oc2nc3c(c(NC(=O)CN4CCCC4=O)c2c1C)CCCC3 [form A crystal, N-(2,3-dimethyl-5,6,7,8-tetrahydrofuro[2,3-b]quinolin-4-yl)-2-(2-oxopyrrolidin-1-yl)acetamide] | good stability; also recorded: greater stability | extremely stable; also recorded: better stability | more stable |  |  |  |  |  |
| Cc1oc2nc3c(c(NC(=O)CN4CCCC4=O)c2c1C)CCCC3 [form B crystal, N-(2,3-dimethyl-5,6,7,8-tetrahydrofuro[2,3-b]quinolin-4-yl)-2-(2-oxopyrrolidin-1-yl)acetamide] | worse stability | worse stability |  | resulted in the form A crystals | good solubility | higher |  |  |
| Cc1oc2nc3c(c(NC(=O)CN4CCCC4=O)c2c1C)CCCC3 [N-(2,3-dimethyl-5,6,7,8-tetrahydrofuro[2,3-b]quinolin-4-yl)-2-(2-oxopyrrolidin-1-yl)acetamide] |  |  |  |  |  |  | 0.41 (≈ 1.2 mM) | 28.1 (≈ 82.2 mM) |
